We go through six compounds from BindingDB's records for doi:10.1007/s00044-010-9428-9 (n/a, 2011).

In experiment [1] the target is T1, Peroxisome proliferator-activated receptor gamma (Homo sapiens, UniProt P37231).
T1 sequence (P37231 whole entry): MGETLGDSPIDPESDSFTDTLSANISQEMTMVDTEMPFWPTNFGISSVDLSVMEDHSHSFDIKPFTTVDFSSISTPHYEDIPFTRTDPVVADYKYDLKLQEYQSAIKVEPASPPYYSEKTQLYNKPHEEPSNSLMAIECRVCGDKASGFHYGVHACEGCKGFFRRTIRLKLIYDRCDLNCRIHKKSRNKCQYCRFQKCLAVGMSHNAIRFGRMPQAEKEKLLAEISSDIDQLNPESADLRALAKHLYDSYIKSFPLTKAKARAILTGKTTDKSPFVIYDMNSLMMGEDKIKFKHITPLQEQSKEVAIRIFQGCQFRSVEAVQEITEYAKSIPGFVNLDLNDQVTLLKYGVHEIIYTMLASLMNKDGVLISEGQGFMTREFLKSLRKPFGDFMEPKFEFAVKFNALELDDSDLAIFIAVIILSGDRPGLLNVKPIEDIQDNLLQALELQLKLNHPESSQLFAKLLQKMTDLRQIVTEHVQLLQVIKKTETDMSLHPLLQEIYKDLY
Description: Transactivation activity at Homo sapiens (human) PPARgamma.

Experiment [2] concerns the target T1, Peroxisome proliferator-activated receptor gamma. Description: Transactivation activity at PPARgamma (unknown origin).

With `O=c1[nH]c(O)c(Cc2ccc3c(c2)CC[C@H](Cc2ccccc2)O3)s1` [5-((R)-2-Benzyl-chroman-6-ylmethyl)-thiazolidine-2,4-dione], the EC50 (commonly the concentration at which the effect is half-maximal) in experiment [1] turned out to be 1 µM.
For the compound `C/C(=N\OCCOc1ccc(Cc2sc(=O)[nH]c2O)cc1)c1cccnc1` [5-(4-{2-[1-Pyridin-3-yl-eth-(E)-ylideneaminooxy]-ethoxy}-benzyl)-thiazolidine-2,4-dione], the EC50 in experiment [2] was determined as 2.8 µM.
Consider `C/C(=N\OCCOc1ccc(Cc2sc(=O)[nH]c2O)cc1)c1ccc(-c2ccncc2)cc1` [5-(4-{2-[1-(4-Pyridin-4-yl-phenyl)-eth-(E)-ylideneaminooxy]-ethoxy}-benzyl)-thiazolidine-2,4-dione], for which the EC50 in experiment [2] came to 1.6 µM.
With `C/C(=N\OCCOc1ccc(Cc2sc(=O)[nH]c2O)cc1)c1ccccn1` [5-(4-{2-[1-Pyridin-2-yl-eth-(E)-ylideneaminooxy]-ethoxy}-benzyl)-thiazolidine-2,4-dione], a half-maximal response in experiment [2] (EC50) required 2.8 µM.
With `CC/C(=N\OCCOc1ccc(Cc2sc(=O)[nH]c2O)cc1)c1ccc(-c2ccccc2)cc1` [5-(4-{2-[1-Biphenyl-4-yl-prop-(E)-ylideneaminooxy]-ethoxy}-benzyl)-thiazolidine-2,4-dione], a half-maximal effect in experiment [2] (EC50) was put at 1.6 µM.
In experiment [1], `CCCc1cc(Oc2ccccc2)ccc1OCCCCOc1ccc(-c2sc(=O)[nH]c2O)cc1` [5-{4-[4-(4-Phenoxy-2-propyl-phenoxy)-butoxy]-phenyl}-thiazolidine-2,4-dione] yielded a 50% effective concentration (EC50) of 1 µM.
